Molecular target: T1, human PAD4 (Homo sapiens, UniProt Q9UM07)
T1 construct: human PAD4 (NM_012387), A2-P663, was PCR amplified; His-SUMO (N, cleaved yes); made in house; host or cells: E. coli BL21(DE3)
Assay: In vitro PAD4 BAEE biochemical assay
Conditions: BAEE substrate 3 mM, 5 nM PAD4, 2 mM calcium chloride; geometric mean of multiple experiments
Method in brief: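 PAD4 5 nM, CaCl2 2 mM, BAEE 3 mM final; 50 mM MOPS pH 7.6, 50 mM NaCl, 0.05% Tween-20, 2 mM DTT. Cpd + enzyme 30 min 25 °C; substrate 2 h 25 °C; EDTA stop; OPA detection 1 h. IC50 4-parameter fit.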

T1 sequence (Q9UM07 2-663): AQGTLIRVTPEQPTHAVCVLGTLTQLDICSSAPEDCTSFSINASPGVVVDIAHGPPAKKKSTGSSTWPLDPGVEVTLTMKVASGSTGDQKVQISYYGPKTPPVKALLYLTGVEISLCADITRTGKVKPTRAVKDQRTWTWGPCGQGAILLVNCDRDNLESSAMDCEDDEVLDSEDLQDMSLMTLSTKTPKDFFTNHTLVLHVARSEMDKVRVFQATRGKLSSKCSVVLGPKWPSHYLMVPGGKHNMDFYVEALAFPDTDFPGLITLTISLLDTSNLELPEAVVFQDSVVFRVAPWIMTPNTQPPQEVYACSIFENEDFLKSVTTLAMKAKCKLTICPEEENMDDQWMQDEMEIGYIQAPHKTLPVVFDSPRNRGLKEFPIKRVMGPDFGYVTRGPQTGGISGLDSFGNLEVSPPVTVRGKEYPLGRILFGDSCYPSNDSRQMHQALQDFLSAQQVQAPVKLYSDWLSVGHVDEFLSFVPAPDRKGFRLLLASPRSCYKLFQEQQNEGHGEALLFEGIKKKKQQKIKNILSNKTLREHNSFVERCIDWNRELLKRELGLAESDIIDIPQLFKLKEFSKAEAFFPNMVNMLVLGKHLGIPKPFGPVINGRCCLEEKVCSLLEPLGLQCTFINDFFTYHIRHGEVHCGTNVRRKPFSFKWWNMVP

SMILES | IC50 [nM]
C[C@H]1NC(=O)[C@@H]2C[C@@]2(F)CCCCCn2c(-c3nc4cc(C(=O)N5C[C@H](N)[C@@H]6CC[C@H]5C6)ccc4n3C3CC3)cc3ccc1nc32 [Example 923, (2~{R},5~{S},7~{S})-14-[5-[(1~{S},4~{R},5~{R})-4-amino-2-azabicyclo[3.2.1]octane-2-carbonyl]-1-cyclopropyl-benzimidazol-2-yl]-7-fluoro-2-methyl-3,13,19-triazatetracyclo [11.5.2.0^{5,7}.0^{16,20}] icosa-1(19),14,16(20), 17-tetraen-4-one] | 24
COc1cc(C(=O)N2C[C@H](N)[C@@H]3CC[C@H]2C3)cc2nc(-c3cc4ccc5nc4n3CC(F)(F)CCC[C@@H]3C[C@@]3(C)C(=O)N[C@@H]5C)n(C3CC3)c12 [Example 924, (2~{R},5~{R},7~{R})-14-[5-[(1~{S),4~{R},5~{R})-4-amino-2-azabicyclo[3.2.1]octane-2-carbonyl]-1-cyclopropyl-7-methoxy-benzimidazol-2-yl]-11,11-difluoro-2,5-dimethyl-3,13,19-triazatetracyclo [11.5.2.0^{5,7}.0^{16,20}] icosa-1(19),14,16(20), 17-tetraen-4-one] | 46
C[C@H]1NC(=O)c2ccc(Cl)nc2CCCCCn2c(-c3nc4cc(C(=O)N5C[C@H](N)[C@@H]6CC[C@H]5C6)cc(F)c4n3CC(F)F)cc3ccc1nc32 [Example 925, (2~{R})-17-[5-[(1~{S),4~{R},5~ {R})-4-amino-2-azabicyclo[3.2.1]octane-2-carbonyl]-1-(2,2-difluoroethyl)-7-fluoro-benzimidazol-2-yl]-8-chloro-2-methyl-3,9,16,22-tetrazatetracyclo[14.5.2.0^ {5,10}.0^{19,23}]tricosa-1(22),5(10),6,8,17,19(23),20-heptaen-4-one] | 40
COc1cc(C(=O)N2C[C@H](N)[C@@H]3CC[C@H]2C3)cc2nc(-c3cc4ccc5nc4n3CCCCCc3cc(F)c(F)cc3C(=O)N[C@@H]5C)n(C)c12 [Example 927, (2~{R})-17-[5-[(1~{S},4~{R}, 5~{R})-4-amino-2-azabicyclo [3.2.1]octane-2-carbonyl]-7-methoxy-1-methyl-benzimidazol-2-yl]-7,8-difluoro-2-methyl-3,16,22-triazatetracyclo[14.5.2.0^ {5,10}.0^{19,23}]tricosa-1(22),5(10),6,8,17,19(23),20-heptaen-4-one] | 49
COc1cc(C(=O)N2C[C@H](N)[C@@H]3CC[C@H]2C3)cc2nc(-c3cc4ccc5nc4n3CCCCCCC(C)(C)C(=O)N[C@@H]5C)c(C)n12 [Example 928, (11~{R})-17-[7-[(1~{S},4~{R}, 5~{R})-4-amino-2-azabicyclo [3.2.1]octane-2-carbonyl]-5-methoxy-3-methyl-imidazo [1,2-a]pyridin-2-yl]-8,8,11-trimethyl-1,10,19-triazatricyclo [10.5.2.0^{15,18}]nonadeca-12(19),13,15(18), 16-tetraen-9-one] | 51
COc1cc(C(=O)N2C[C@H](N)[C@@H]3CC[C@H]2C3)cc2nc(-c3cc4ccc5nc4n3CCCCC[C@H]3[C@H](C(=O)N[C@@H]5C)C3(F)F)c(C)n12 [Example 929, (2~{R},5~{R},7~{S})-14-[7-[(1~{S},4~{R},5~{R})-4-amino-2-azabicyclo[3.2.1]octane-2-carbonyl]-5-methoxy-3-methyl-imidazo[1,2-a]pyridin-2-yl]-6,6-difluoro-2-methyl-3,13,19-triazatetracyclo[11.5.2.0^ {5,7}.0^{16,20}]icosa-1(19), 14,16(20),17-tetraen-4-one] | 18
COc1cc(C(=O)N2C[C@H](N)[C@@H]3CC[C@H]2C3)cc2nc(-c3cc4ccc5nc4n3CCCCC[C@H]3[C@H](C(=O)N[C@@H]5C)C3(F)F)n(C3CC3)c12 [Example 930, (2~{R},5~{R},7~{S})-14-[5-[(1~{S},4~{R},5~{R})-4-amino-2-azabicyclo[3.2.1]octane-2-carbonyl]-1-cyclopropyl-7-methoxy-benzimidazol-2-yl]-6,6-difluoro-2-methyl-3,13,19-triazatetracyclo[11.5.2.0^ {5,7}.0^{16,20}]icosa-1(19), 14,16(20),17-tetraen-4-one] | 22

— US11976083B2, “Inhibitors of peptidylarginine deiminases” (Gilead Sciences, Inc., priority 2020, dated 2024)
